Here are results for 26 compounds from patent US10166216B2 (Rigel Pharmaceuticals, Inc., priority 2006, dated 2019).

pIC50: −log10 of the molar value. Some results are limits rather than exact numbers.

Sequence of Axl (P30530 26-894): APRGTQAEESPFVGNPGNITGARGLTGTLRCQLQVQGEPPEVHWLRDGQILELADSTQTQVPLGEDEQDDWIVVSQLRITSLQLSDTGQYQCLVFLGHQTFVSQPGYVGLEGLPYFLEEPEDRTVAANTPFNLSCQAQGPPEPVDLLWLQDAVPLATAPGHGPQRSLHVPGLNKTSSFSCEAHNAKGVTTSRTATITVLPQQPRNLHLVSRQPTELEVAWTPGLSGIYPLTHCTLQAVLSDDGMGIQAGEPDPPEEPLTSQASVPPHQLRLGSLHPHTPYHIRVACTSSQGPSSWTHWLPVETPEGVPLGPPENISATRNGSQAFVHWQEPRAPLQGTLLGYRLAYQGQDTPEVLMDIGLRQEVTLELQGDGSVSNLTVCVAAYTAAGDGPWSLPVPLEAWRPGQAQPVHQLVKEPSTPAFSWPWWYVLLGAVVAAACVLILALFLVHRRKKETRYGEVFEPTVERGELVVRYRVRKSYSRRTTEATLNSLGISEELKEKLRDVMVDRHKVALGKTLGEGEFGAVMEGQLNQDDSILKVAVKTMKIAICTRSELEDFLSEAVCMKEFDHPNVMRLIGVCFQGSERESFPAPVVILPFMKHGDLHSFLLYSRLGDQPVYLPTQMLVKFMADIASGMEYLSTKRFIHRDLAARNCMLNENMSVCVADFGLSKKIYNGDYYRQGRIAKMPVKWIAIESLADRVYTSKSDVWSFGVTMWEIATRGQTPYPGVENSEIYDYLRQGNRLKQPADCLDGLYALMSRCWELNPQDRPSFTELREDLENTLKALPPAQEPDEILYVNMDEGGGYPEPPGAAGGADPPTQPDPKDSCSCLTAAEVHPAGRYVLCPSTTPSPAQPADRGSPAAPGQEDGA

One assay concerns the target Axl (Homo sapiens (Human), UniProt P30530). Nature of the assay: Phospho-Akt in-cell Western assay (Axl-antibody cross-linking stimulation). The format is cell-based. Conditions: inhibition of Axl activity, Hela cells, phospho-Akt readout; Table 5, formula (Ia3). The essentials: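 HeLa cells on poly-L-lysine, starved 24 hrs with Axl/Fc, pre-treated with compound 1 hr at 37° C., then stimulated 5 min with Axl primary/secondary antibody cluster. Fixed cells probed for phospho-Akt by chemiluminescent in-cell Western; signal normalized to crystal violet cell number.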
On to `CNC(=O)c1ccc(Nc2nc(NC)n(-c3ccccc3)n2)cc1` [Compound 246, 1-phenyl-N^3-(4-(methylaminocarbonyl)-phenyl)-N^5-methyl-1H-1,2,4-triazole-3,5-diamine], for which the pIC50 (as a rule, the IC50 on a negative log10 scale, so that one unit is a factor of ten) is less than 4.70.

As to `CCOC(=O)c1ccc(Nc2nc(NC)n(-c3ccccc3)n2)cc1` [Compound 247, 1-phenyl-N^3-(4-(ethyloxocarbonyl)phenyl)-N^5-methyl-1H-1,2,4-triazole-3,5-diamine], the pIC50 is less than 4.70.

For `COc1ccc2nc(Cl)c(-n3nc(Nc4ccc(N5CCC(N6CCCC6)CC5)c(F)c4)nc3N)nc2c1` [Compound 256, 1-(2-chloro-6-methoxy-quinoxalin-3-yl)-N^3-(3-fluoro-4-(4-(pyrrolidin-1-yl)piperidin-1-yl)phenyl)-1H-1,2,4-triazole-3,5-diamine], the pIC50 was greater than 6.00.

For `Nc1nc(Nc2ccc(N3CCC(N4CCCC4)CC3)c(F)c2)nn1-c1cc(-c2ccccc2)ccn1` [Compound 259, 1-(4-phenylpyridin-2-yl)-N^3-(3-fluoro-4-(4-(pyrrolidin-1-yl)piperidin-1-yl)phenyl)-1H-1,2,4-triazole-3,5-diamine], the negative logarithm of the IC50 (pIC50) was greater than 6.00.

For the compound `Cc1csc2c(-n3nc(Nc4ccc(N5CCC(N6CC7CCC6C7)CC5)c(F)c4)nc3N)ncnc12` (centres unmarked) [Compound 260, 1-(7-methylthieno[3,2-d]pyrimidin-4-yl)-N^3-(3-fluoro-4-(4-(2-azabicyclo[2.2.1]heptan-2-yl)piperidin-1-yl)phenyl)-1H-1,2,4-triazole-3,5-diamine], the pIC50 is greater than 6.00.

For the compound `Cc1csc2c(-n3nc(Nc4ccc(C5CCN(C6CC7CCC6C7)CC5)cc4)nc3N)ncnc12` (centres unmarked) [Compound 261, 1-(7-methylthieno[3,2-d]pyrimidin-4-yl)-N^3-(4-(1-(bicyclo[2.2.1]heptan-2-yl)piperidin-4-yl)phenyl)-1H-1,2,4-triazole-3,5-diamine], the negative-log IC50 (pIC50) was greater than 6.00.

Still in this assay, the particulars now being: inhibition of Axl activity, phospho-Akt in-cell Western assay.
In the case of `Cc1csc2c(-n3nc(Nc4ccc(N5CCN([C@H]6CC7CCC6C7)CC5)cc4)nc3N)nc(-c3ccccc3Cl)nc12` (stereo partly drawn) [Compound 235, 1-(7-methyl-2-(2-chlorophenyl)thieno[3,2-d]pyrimidin-4-yl)-N^3-(4-(4-((2S)-bicyclo[2.2.1]heptan-2-yl)piperazin-1-yl)phenyl)-1H-1,2,4-triazole-3,5-diamine], the pIC50 is 5.00 to 6.00.

For `Cc1csc2c(-n3nc(Nc4ccc(N5CCN([C@H]6CC7CCC6C7)CC5)cc4)nc3N)nc(-c3ccc4c(c3)OCO4)nc12` (stereo partly drawn) [Compound 236, 1-(7-methyl-2-benzo[d][1,3]dioxole-5-ylthieno[3,2-d]pyrimidin-4-yl)-N^3-(4-(4-((2S)-bicyclo[2.2.1]heptan-2-yl)piperazin-1-yl)phenyl)-1H-1,2,4-triazole-3,5-diamine], the negative-log IC50 (pIC50) is less than 4.70.

In the case of `Cc1csc2c(-n3nc(Nc4ccc(N5CCN([C@H]6CC7CCC6C7)CC5)cc4)nc3N)nc(-c3ccncc3)nc12` (stereo partly drawn) [Compound 237, 1-(7-methyl-2-pyridin-4-ylthieno[3,2-d]pyrimidin-4-yl)-N^3-(4-(4-((2S)-bicyclo[2.2.1]heptan-2-yl)piperazin-1-yl)phenyl)-1H-1,2,4-triazole-3,5-diamine], the negative logarithm of the IC50 (pIC50) is greater than 6.00.

`Cc1csc2c(-n3nc(Nc4ccc(N5CCN([C@H]6CC7CCC6C7)CC5)cc4)nc3N)nc(-c3cccc(NS(C)(=O)=O)c3)nc12` (stereo partly drawn) [Compound 238, 1-(7-methyl-2-(3-(methylsulfonyl)aminophenyl)thieno[3,2-d]pyrimidin-4-yl)-N^3-(4-(4-((2S)-bicyclo[2.2.1]heptan-2-yl)piperazin-1-yl)phenyl)-1H-1,2,4-triazole-3,5-diamine]: the pIC50 is 5.00 to 6.00.

For the compound `Cc1csc2c(-n3nc(Nc4ccc(N5CCN([C@H]6CC7CCC6C7)CC5)cc4)nc3N)nc(C=CCN3CCCC3)nc12` (stereo partly drawn) [Compound 239, 1-(7-methyl-2-(3-(pyrrolidin-1-yl)prop-1-enyl)thieno[3,2-d]pyrimidin-4-yl)-N^3-(4-(4-((2S)-bicyclo[2.2.1]heptan-2-yl)piperazin-1-yl)phenyl)-1H-1,2,4-triazole-3,5-diamine], the negative logarithm of the IC50 (pIC50) was 5.00 to 6.00.

Consider `Cc1csc2c(-n3nc(Nc4ccc(N5CCN([C@H]6CC7CCC6C7)CC5)cc4)nc3N)nc(C=CCN3CCN(C)CC3)nc12` (stereo partly drawn) [Compound 240, 1-(7-methyl-2-(3-(4-methylpiperazin-1-yl)prop-1-enyl)thieno[3,2-d]pyrimidin-4-yl)-N^3-(4-(4-((2S)-bicyclo[2.2.1]heptan-2-yl)piperazin-1-yl)phenyl)-1H-1,2,4-triazole-3,5-diamine], for which the pIC50 is 5.00 to 6.00.

The compound `Cc1csc2c(-n3nc(Nc4ccc(N5CCN([C@H]6CC7CCC6C7)CC5)cc4)nc3N)nc(/C=C/CN3CCOCC3)nc12` (stereo partly drawn) [Compound 241, 1-((E)-7-methyl-2-(3-(morpholin-4-yl)prop-1-enyl)thieno[3,2-d]pyrimidin-4-yl)-N^3-(4-(4-((2S)-bicyclo[2.2.1]heptan-2-yl)piperazin-1-yl)phenyl)-1H-1,2,4-triazole-3,5-diamine] showed a pIC50 of 5.00 to 6.00.

Compound `Cc1csc2c(-n3nc(Nc4ccc(N5CCN([C@H]6C[C@@H]7CC[C@H]6C7)CC5)c(Cl)c4)nc3N)ncnc12` [Compound 242, 1-(7-methylthieno[3,2-d]pyrimidin-4-yl)-N^3-(3-chloro-4-(4-((1S,2S,4R)-bicyclo[2.2.1]heptan-2-yl)piperazin-1-yl)phenyl)-1H-1,2,4-triazole-3,5-diamine] had a negative-log IC50 (pIC50) greater than 6.00.

`Nc1nc(Nc2ccc(N3CCN([C@H]4C[C@@H]5CC[C@H]4C5)CC3)c(Cl)c2)nn1-c1ncnc2ccsc12` [Compound 243, 1-thieno[3,2-d]pyrimidin-4-yl-N^3-(3-chloro-4-(4-((1S,2S,4R)-bicyclo[2.2.1]heptan-2-yl)piperazin-1-yl)phenyl)-1H-1,2,4-triazole-3,5-diamine] had a pIC50 greater than 6.00.

With `Nc1nc(Nc2ccc(N3CCN([C@H]4C[C@@H]5CC[C@H]4C5)CC3)c(Cl)c2)nn1-c1ncnc2sccc12` [Compound 244, 1-thieno[2,3-d]pyrimidin-4-yl-N^3-(3-chloro-4-(4-((1S,2S,4R)-bicyclo[2.2.1]heptan-2-yl)piperazin-1-yl)phenyl)-1H-1,2,4-triazole-3,5-diamine], the pIC50 is greater than 6.00.

Consider `Cc1csc2c(-n3nc(Nc4ccc(N5CCN([C@H]6C[C@@H]7CC[C@H]6C7)CC5)c(F)c4)nc3N)ncnc12` [Compound 245, 1-(7-methylthieno[3,2-d]pyrimidin-4-yl)-N^3-(3-fluoro-4-(4-((1S,2S,4R)-bicyclo[2.2.1]heptan-2-yl)piperazin-1-yl)phenyl)-1H-1,2,4-triazole-3,5-diamine], for which the negative logarithm of the IC50 (pIC50) was greater than 6.00.

Compound `Cc1csc2c(-n3nc(Nc4ccc(N5CCN(C6CC7CCC6C7)[C@H](C)C5)c(F)c4)nc3N)ncnc12` (stereo partly drawn) [Compound 248, 1-(7-methylthieno[3,2-d]pyrimidin-4-yl)-N^3-(3-fluoro-4-(3-(R)-methyl-4-(bicyclo[2.2.1]heptan-2-yl)piperazin-1-yl)phenyl)-1H-1,2,4-triazole-3,5-diamine] gave a pIC50 greater than 6.00.

In turn, `Cc1csc2c(-n3nc(Nc4ccc(N5CCN(C6CC7CCC6C7)[C@@H](C)C5)c(F)c4)nc3N)ncnc12` (stereo partly drawn) [Compound 249, 1-(7-methylthieno[3,2-d]pyrimidin-4-yl)-N^3-(3-fluoro-4-(3-(S)-methyl-4-(bicyclo[2.2.1]heptan-2-yl)piperazin-1-yl)phenyl)-1H-1,2,4-triazole-3,5-diamine] showed a pIC50 greater than 6.00.

`Cc1csc2c(-n3nc(Nc4ccc(N5CCN([C@H]6C[C@@H]7CC[C@H]6C7)[C@H](C)C5)c(F)c4)nc3N)ncnc12` [Compound 250, 1-(7-methylthieno[3,2-d]pyrimidin-4-yl)-N^3-(3-fluoro-4-(3-(R)-methyl-4-((1S,2S,4R)-bicyclo[2.2.1]heptan-2-yl)piperazin-1-yl)phenyl)-1H-1,2,4-triazole-3,5-diamine] had a pIC50 greater than 6.00.

On to `Cc1csc2c(-n3nc(Nc4ccc(N5CCN([C@H]6C[C@@H]7CC[C@H]6C7)[C@@H](C)C5)c(F)c4)nc3N)ncnc12` [Compound 251, 1-(7-methylthieno[3,2-d]pyrimidin-4-yl)-N^3-(3-fluoro-4-(3-(S)-methyl-4-((1S,2S,4R)-bicyclo[2.2.1]heptan-2-yl)piperazin-1-yl)phenyl)-1H-1,2,4-triazole-3,5-diamine], for which the negative-log IC50 (pIC50) is greater than 6.00.

The compound `Cc1cc(Nc2nc(N)n(-c3ncnc4c(C)csc34)n2)ccc1N1CCN([C@H]2C[C@@H]3CC[C@H]2C3)CC1` [Compound 252, 1-(7-methylthieno[3,2-d]pyrimidin-4-yl)-N^3-(3-methyl-4-(4-((1S,2S,4R)-bicyclo[2.2.1]heptan-2-yl)piperazin-1-yl)phenyl)-1H-1,2,4-triazole-3,5-diamine] showed a pIC50 greater than 6.00.

Regarding `Cc1cc(Nc2nc(N)n(-c3ncnc4c(C)csc34)n2)ccc1N1CCN([C@H]2C[C@@H]3CC[C@H]2C3)[C@@H](C)C1` [Compound 253, 1-(7-methylthieno[3,2-d]pyrimidin-4-yl)-N^3-(3-methyl-4-(3-(S)-methyl-4-((1S,2S,4R)-bicyclo[2.2.1]heptan-2-yl)piperazin-1-yl)phenyl)-1H-1,2,4-triazole-3,5-diamine], the negative logarithm of the IC50 (pIC50) is greater than 6.00.

In turn, `Cc1cc(Nc2nc(N)n(-c3ncnc4c(C)csc34)n2)ccc1N1CCN([C@H]2C[C@@H]3CC[C@H]2C3)[C@H](C)C1` [Compound 254, 1-(7-methylthieno[3,2-d]pyrimidin-4-yl)-N^3-(3-methyl-4-(3-(R)-methyl-4-((1S,2S,4R)-bicyclo[2.2.1]heptan-2-yl)piperazin-1-yl)phenyl)-1H-1,2,4-triazole-3,5-diamine] had a negative-log IC50 (pIC50) greater than 6.00.

Turning to `C[C@H]1CN(c2ccc(Nc3nc(N)n(-c4ncnc5ccsc45)n3)cc2F)CCN1[C@H]1C[C@@H]2CC[C@H]1C2` [Compound 255, 1-thieno[3,2-d]pyrimidin-4-yl-N^3-(3-fluoro-4-(3-(S)-methyl-4-((1S,2S,4R)-bicyclo[2.2.1]heptan-2-yl)piperazin-1-yl)phenyl)-1H-1,2,4-triazole-3,5-diamine], the pIC50 is greater than 6.00.

`Cc1csc2c(-n3nc(Nc4ccc(N5CCN([C@H]6C[C@@H]7CC[C@H]6C7)[C@@H](C)C5)c(F)c4)nc3N)nc(Cl)nc12` [Compound 257] showed a pIC50 greater than 6.00.
